Assays:
[1] = Pharmacokinetic study (2): phenylbutyric acid monomer in plasma and liver by LC/MS; assay type: in vivo, ICR mice; conditions: 200 mg/kg (1.22 mmol-4PBA/kg); blood and liver
Protocol: Forty-five (45) 7-week-old ICR mice (male) were randomly divided into the following three groups. Doses for the administration groups 2GP and 3GP were determined so that the amount of phenylbutyric acid contained therein reached 200 mg/kg (1.22 mmol-4PBA/kg). After each sample is administered nearly simultaneously to all the mice, 1 mL of blood is taken by cardiac puncture, according to each endpoint (7 endpoints of 30 min, 1 h, 2 h, 4 h, 12 h, 16 h, 24 h), to separate plasma. The target organ, liver, was also taken out from each of the mice, and content of the phenyl butyric acid monomer was quantified by high performance liquid chromatography/mass spectrometry (LC/MS). The measurement results are illustrated in FIG. 43. In these figures, PBA was totally metabolized within 4 hours, whereas 4-Ph-BNP persistently released the phenylbutyric acid monomer in the blood and in the liver, and the release was not terminated even after 24 hours.
1GP: Saline (control, 3 mice) 2GP: 4-Phenylbutyric acid (7 endpoints (30 min, 1 h, 2 h, 4 h, 12 h, 16 h, and 24 h)×3 mice) 3GP: Ph-BNP (7 endpoints (30 min, 1 h, 2 h, 4 h, 12 h, 16 h, and 24 h)×3 mice)

[2] = Antidiabetic test (glucose resistance test, pancreatic histology); assay type: in vivo, C57BL/6J mice; conditions: for size of the islets of Langerhans: H & E stained pancreatic tissue; for glucose concentration in glucose resistance test: glucose 2 g/kg orally, [glucose]60 min−[glucose]0 min, compared with the diabetic model mice
Protocol: (§1) Seven 7 to 8-week-old C57BL/6J mice (male) per group were obtained from Charles River Japan, Inc (Yokohama). These mice were bred while being freely fed with a standard solid feed at controlled temperature (23±1° C.) and humidity (50±5%) in a controlled temperature (23±1° C.) and humidity (50±5%) under non-pathogenic conditions in 12 hours dark/light cycles. The mice were randomly divided into the following administration groups of GP1 to GP6, and allowed to freely drink each sample described until Day 36. One day later, a glucose resistance test was performed. In the test, the body weight and sample consumption for each mouse were monitored every day. The sample was then replaced with drinking water until the end of the test (Day 40).
(2) The glucose resistance test was performed to evaluate the therapeutic effects of short chain fatty acids in controlling the metabolism of the administered glucose. Sixteen (16) hours after overnight constraint, glucose (2 g/kg) was orally administered to the mice. One hour before and after the glucose administration, 10 μL of blood was collected from the tail vein, and mixed with heparin-containing (50 units/mL) saline in a volume (v:v) ratio of 1:1. A glucose concentration in the diluted blood was measured by FUJI DRY-CHEM 7000V (FUJIFILM Corporation). A final blood glucose concentration was calculated by the following equation:
Final glucose concentration (mg/mL)=[glucose]60 min−[glucose]0 min
(§2) The organs of the mice taken out after dissection were fixed by immediately putting them in a 10% neutral formalin solution and immersing them therein for 1 day. Thereafter, the solution was replaced with a 70% ethanol solution for paraffin embedding. In accordance with a routine method, all the organs after the paraffin embedding were processed into tissue sections with a thickness of 5 μm, which were hematoxylin/eosin (HE) stained by a routine method. The tissue sections were dehydrated with high-concentration alcohol, washed with xylene, then fixed, and subjected to microscope examination (biorevo, BZ-9000, Keyence). A region of the islets of Langerhans was determined by ImageJ software (NIH). The results are illustrated in FIG. 30. […] The t-test is the same as described above.

[3] = mouse, in vivo
Protocol: as §1
These organs were stored in a 10% neutral buffer for further histological analysis. The Student's t-test is the same as described above.
as §2, with “All” for “In accordance with a routine method, all”, “alcohol and” for “alcohol,”, “followed by” for “then fixed, and subjected to”, “villus length” for “region of the islets of Langerhans”, “measured” for “determined”, “(NIH).” for “(NIH). The results are illustrated in FIG. 30.”

[4] = Body weight in radiation enhancer Test Example 10; assay type: in vivo, C57BL/6J mice
Protocol: Five or seven 5 to 7-week-old C57BL/6J mice per group obtained similarly as in the above test were bred under similar conditions. 0.076×10^6 melanoma B16F10 cells per 100 μL (serum free DMEM) were injected subcutaneously into the outer side of the right thigh of each of the mice (Day 9 before irradiation). […] The irradiation conditions were set to 10 Gy, 150 kV, 20 mA, Al+Cu (0.5 mm+0.1 mm) filtration, and 330 mm intervals.
(3) The data on body weight changes in the mice as mean SD values (n=7) are illustrated in FIG. 35. The t-test is the same as described above.

melanoma B16F10 cells = test: Effect 2 as radiation enhancer (melanoma xenograft model); assay type: in vivo, C57BL/6J mice; conditions: for tumor weight / tumor size at the end of the test: Day 6 after irradiation
Protocol: Five or seven 5 to 7-week-old C57BL/6J mice per group obtained similarly as in the above test were bred under similar conditions. 0.076×10^6 melanoma B16F10 cells per 100 μL (serum free DMEM) were injected subcutaneously into the outer side of the right thigh of each of the mice (Day 9 before irradiation). When the cancer volume reached from 350 to 560 mm^3, the mice were randomly divided into the following administration groups. The irradiation conditions were set to 10 Gy, 150 kV, 20 mA, Al+Cu (0.5 mm+0.1 mm) filtration, and 330 mm intervals.
The cancer volume was calculated in the same manner as described above.
GP4: Butyric acid (i.p.; 250 mg/kg) (6 hours before irradiation)+IR group (n=7)
GP5: Butyric acid (i.p.; 500 mg/kg) (24 hours before irradiation)+IR group (n=7)
GP6: BNP (i.p.: 500 mg/kg) (6 hours before irradiation)+IR group (n=7)
GP7: BNP (i.p.: 500 mg/kg) (12 hours before irradiation)+IR group (n=7)
(1) The data on cancer proliferation profiles by 5 Gy irradiation after butyric acid and NP administration in a melanoma xenograft model is illustrated in FIG. 33.
(2) The data on the cancer weight at the end of the test (Day 6 after irradiation) is illustrated in FIG. 32 as mean±SEM values (n=from 2 to 7). The t-test is the same as in Test 8 (5).

| Compound | time until totally metabolized [1] [h] | size of the islets of Langerhans [2] | glucose concentration in glucose resistance test [2] | villus length in the duodenum, jejunum, ileum, and large intestine [3] | body weight change / toxicity ([4]; i.p. before irradiation) | tumor proliferation suppressive effect (order of groups) (melanoma B16F10 cells; i.p. 6 hours before 5 Gy irradiation) | tumor weight / tumor size at the end of the test (melanoma B16F10 cells; i.p. 6 hours before irradiation) | tumor proliferation suppressive effect (order of groups) (melanoma B16F10 cells; i.p. 24 hours before 5 Gy irradiation) | tumor weight / tumor size at the end of the test (melanoma B16F10 cells; i.p. 24 hours before irradiation) | body weight change / toxicity ([4]; mouse, in vivo, ip) |
| --- | --- | --- | --- | --- | --- | --- | --- | --- | --- | --- |
| O=C(O)CCCc1ccccc1 [4-phenylbutyric acid] | ≤ 4 | – | – | – | – | – | – | – | – | – |
| CCCC(=O)O [butyric acid] | – | reduced | no significant differences | same trend | body weight decrease is found | irradiation group <butyric acid (6 hours before) administration group | significantly reduced | BNP (6 hours before) administration group=butyric acid (24 hours before) administration group | significantly reduced | – |
| CCC(=O)O [propionic acid] | – | reduced | no significant differences | same trend | – | – | – | – | – | – |
| CH3O—(CH2CH2O)m—CH2PhCH2[CH2CH(OC(═O)CH2CH2CH3)]nS(═S)OCH2CH3 [N721] | – | – | – | did not have a shortened villus length or damage to the digestive tract | – | – | – | – | – | does not have a body weight decrease |

From patent publication US20220332876A1, “HYDROPHILIC-HYDROPHOBIC COPOLYMER CARRYING SHORT CHAIN FATTY ACID ESTER” (UNIVERSITY OF TSUKUBA, priority 2019, published 2022)
